Reference: PubChem BioAssay AID248 (DTP/NCI, 2004)
“And” between values parts separate entries of the source, which are not always exact repeats. Identical values can stand only once. Inconclusive results and toxic doses are left out. Rule as the data show it: active = T/C of 150% or more; inactive = T/C below 125%.

System: L1210 leukemia ip in BDF1 mice, survival T/C
Assay: NCI In Vivo Anticancer Drug Screen. Data for tumor model L1210 Leukemia (intraperitoneal) in B6D2F1 (BDF1) mice
Conditions: higher = longer survival
Summary of the method: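 In this screen, tumor-bearing mice given compound are compared to those given vehicle, and their survival values are reported as a treated-to-control quotient.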

Measured: T/C

N[C@H](C(=O)O)[C@H]1ON=C(Cl)[C@@H]1O
active: endpoint: mean survival time, dose: 50.0 mg/kg/injection, schedule: Q01DX009 (ip), vehicle: Klucel (hydroxypropylcellulose) (HPC) 150 % of control | endpoint: mean survival time, dose: 66.0 mg/kg/injection, schedule: Q01DX009 (ip), vehicle: Klucel (hydroxypropylcellulose) (HPC) 151 % of control | endpoint: mean survival time, dose: 100.0 mg/kg/injection, schedule: Q01DX009 (ip), vehicle: Klucel (hydroxypropylcellulose) (HPC) 154 % of control and 158 % of control | endpoint: median survival time, dose: 4.0 mg/kg/injection, schedule: Q03HX024 (ip), vehicle: saline 154 % of control | endpoint: median survival time, dose: 6.25 mg/kg/injection, schedule: Q03HX016 (ip), vehicle: saline 154 % of control | endpoint: median survival time, dose: 6.25 mg/kg/injection, schedule: Q03HX024 (ip), vehicle: saline 189 % of control | endpoint: median survival time, dose: 8.0 mg/kg/injection, schedule: Q03HX016 (ip), vehicle: saline 153 % of control | endpoint: median survival time, dose: 12.5 mg/kg/injection, schedule: Q03HX016 (ip), vehicle: saline 152 % of control | endpoint: median survival time, dose: 12.5 mg/kg/injection, schedule: Q03HX024 (ip), vehicle: saline 170 % of control | endpoint: median survival time, dose: 16.0 mg/kg/injection, schedule: Q03HX016 (ip), vehicle: saline 150 % of control | endpoint: median survival time, dose: 25.0 mg/kg/injection, schedule: Q01DX009 (ip), vehicle: saline 171 % of control | endpoint: median survival time, dose: 25.0 mg/kg/injection, schedule: Q03HX016 (ip), vehicle: saline 160 % of control | endpoint: median survival time, dose: 32.0 mg/kg/injection, schedule: Q03HX016 (ip), vehicle: saline 150 % of control | endpoint: median survival time, dose: 32.0 mg/kg/injection, schedule: Q03HX024 (ip), vehicle: saline 153 % of control | endpoint: median survival time, dose: 50.0 mg/kg/injection, schedule: Q03HX016 (ip), vehicle: saline 158 % of control | endpoint: median survival time, dose: 64.0 mg/kg/injection, schedule: Q01DX009 (sc), vehicle: saline 151 % of control | endpoint: median survival time, dose: 64.0 mg/kg/injection, schedule: Q03HX024 (ip), vehicle: saline 153 % of control | endpoint: median survival time, dose: 100.0 mg/kg/injection, schedule: Q01DX009 (ip), vehicle: saline 169 % of control | endpoint: median survival time, dose: 100.0 mg/kg/injection, schedule: Q03HX016 (ip), vehicle: saline 152 % of control | endpoint: median survival time, dose: 100.0 mg/kg/injection, schedule: Q03HX024 (ip), vehicle: saline 202 % of control | endpoint: median survival time, dose: 128.0 mg/kg/injection, schedule: Q01DX009 (ip), vehicle: saline 151 % of control | endpoint: median survival time, dose: 128.0 mg/kg/injection, schedule: Q01DX009 (sc), vehicle: saline 163 % of control | endpoint: median survival time, dose: 128.0 mg/kg/injection, schedule: Q03HX024 (ip), vehicle: saline 152 % of control | endpoint: median survival time, dose: 256.0 mg/kg/injection, schedule: Q01DX009 (ip), vehicle: saline 153 % of control
inactive: endpoint: mean survival time, dose: 0.78 mg/kg/injection, schedule: Q01DX009 (ip), vehicle: saline 108 % of control | endpoint: mean survival time, dose: 5.5 mg/kg/injection, schedule: Q01DX009 (ip), vehicle: Klucel (hydroxypropylcellulose) (HPC) 108 % of control | endpoint: mean survival time, dose: 25.0 mg/kg/injection, schedule: Q01DX009 (ip), vehicle: Klucel (hydroxypropylcellulose) (HPC) 118 % of control | endpoint: mean survival time, dose: 150.0 mg/kg/injection, schedule: Q01DX009 (ip), vehicle: Klucel (hydroxypropylcellulose) (HPC) 104 % of control | endpoint: median survival time, dose: 4.0 mg/kg/injection, schedule: Q03HX008 (ip), vehicle: saline 123 % of control | endpoint: median survival time, dose: 8.0 mg/kg/injection, schedule: Q01DX009 (sc), vehicle: saline 118 % of control | endpoint: median survival time, dose: 25.0 mg/kg/injection, schedule: Q01DX001 (ip), vehicle: saline 113 % of control | endpoint: median survival time, dose: 25.0 mg/kg/injection, schedule: Q08DX002 (ip), vehicle: saline 104 % of control | endpoint: median survival time, dose: 32.0 mg/kg/injection, schedule: Q01DX001 (ip), vehicle: saline 105 % of control | endpoint: median survival time, dose: 32.0 mg/kg/injection, schedule: Q01DX001 (sc), vehicle: saline 105 % of control | endpoint: median survival time, dose: 32.0 mg/kg/injection, schedule: Q04DX003 (ip), vehicle: saline 122 % of control | endpoint: median survival time, dose: 32.0 mg/kg/injection, schedule: Q08DX002 (ip), vehicle: saline 111 % of control | endpoint: median survival time, dose: 50.0 mg/kg/injection, schedule: Q01DX001 (ip), vehicle: saline 113 % of control | endpoint: median survival time, dose: 50.0 mg/kg/injection, schedule: Q08DX002 (ip), vehicle: saline 108 % of control | endpoint: median survival time, dose: 64.0 mg/kg/injection, schedule: Q01DX001 (ip), vehicle: saline 100 % of control | endpoint: median survival time, dose: 64.0 mg/kg/injection, schedule: Q01DX001 (sc), vehicle: saline 106 % of control | endpoint: median survival time, dose: 64.0 mg/kg/injection, schedule: Q01DX009 (oral), vehicle: saline 115 % of control | endpoint: median survival time, dose: 64.0 mg/kg/injection, schedule: Q04DX003 (ip), vehicle: saline 122 % of control | endpoint: median survival time, dose: 64.0 mg/kg/injection, schedule: Q08DX002 (ip), vehicle: saline 113 % of control | endpoint: median survival time, dose: 100.0 mg/kg/injection, schedule: Q01DX001 (ip), vehicle: saline 104 % of control | endpoint: median survival time, dose: 100.0 mg/kg/injection, schedule: Q04DX003 (ip), vehicle: saline 122 % of control | endpoint: median survival time, dose: 100.0 mg/kg/injection, schedule: Q08DX002 (ip), vehicle: saline 114 % of control | endpoint: median survival time, dose: 128.0 mg/kg/injection, schedule: Q01DX001 (ip), vehicle: saline 108 % of control | endpoint: median survival time, dose: 128.0 mg/kg/injection, schedule: Q01DX001 (sc), vehicle: saline 104 % of control | endpoint: median survival time, dose: 128.0 mg/kg/injection, schedule: Q04DX003 (ip), vehicle: saline 108 % of control | endpoint: median survival time, dose: 128.0 mg/kg/injection, schedule: Q08DX002 (ip), vehicle: saline 102 % of control | endpoint: median survival time, dose: 200.0 mg/kg/injection, schedule: Q01DX001 (ip), vehicle: saline 108 % of control | endpoint: median survival time, dose: 200.0 mg/kg/injection, schedule: Q01DX009 (ip), vehicle: saline 104 % of control | endpoint: median survival time, dose: 200.0 mg/kg/injection, schedule: Q08DX002 (ip), vehicle: saline 104 % of control | endpoint: median survival time, dose: 256.0 mg/kg/injection, schedule: Q01DX001 (ip), vehicle: saline 104 % of control | endpoint: median survival time, dose: 256.0 mg/kg/injection, schedule: Q01DX001 (oral), vehicle: saline 108 % of control and 109 % of control | endpoint: median survival time, dose: 256.0 mg/kg/injection, schedule: Q01DX001 (sc), vehicle: saline 104 % of control | endpoint: median survival time, dose: 256.0 mg/kg/injection, schedule: Q01DX009 (oral), vehicle: saline 115 % of control and 90 % of control | endpoint: median survival time, dose: 256.0 mg/kg/injection, schedule: Q08DX002 (ip), vehicle: saline 99 % of control | endpoint: median survival time, dose: 400.0 mg/kg/injection, schedule: Q01DX001 (ip), vehicle: saline 117 % of control | endpoint: median survival time, dose: 400.0 mg/kg/injection, schedule: Q08DX002 (ip), vehicle: saline 122 % of control | endpoint: median survival time, dose: 512.0 mg/kg/injection, schedule: Q01DX001 (ip), vehicle: saline 105 % of control | endpoint: median survival time, dose: 512.0 mg/kg/injection, schedule: Q01DX001 (oral), vehicle: saline 115 % of control and 118 % of control | endpoint: median survival time, dose: 512.0 mg/kg/injection, schedule: Q01DX001 (sc), vehicle: saline 107 % of control | endpoint: median survival time, dose: 512.0 mg/kg/injection, schedule: Q01DX009 (oral), vehicle: saline 87 % of control | endpoint: median survival time, dose: 512.0 mg/kg/injection, schedule: Q08DX002 (ip), vehicle: saline 102 % of control | endpoint: median survival time, dose: 1024.0 mg/kg/injection, schedule: Q01DX001 (ip), vehicle: saline 114 % of control | endpoint: median survival time, dose: 1024.0 mg/kg/injection, schedule: Q01DX001 (oral), vehicle: saline 114 % of control | endpoint: median survival time, dose: 1024.0 mg/kg/injection, schedule: Q01DX001 (sc), vehicle: saline 109 % of control | endpoint: median survival time, dose: 1024.0 mg/kg/injection, schedule: Q08DX002 (ip), vehicle: saline 118 % of control

CCCCCCCN=C(N)CSSCC(N)=NCCCCCCC
inactive: endpoint: mean survival time, dose: 1.56 mg/kg/injection, schedule: Q04DX002 (ip), vehicle: saline with Tween-80 101 % of control | endpoint: mean survival time, dose: 3.13 mg/kg/injection, schedule: Q04DX002 (ip), vehicle: saline with Tween-80 96 % of control | endpoint: mean survival time, dose: 6.25 mg/kg/injection, schedule: Q04DX002 (ip), vehicle: saline with Tween-80 108 % of control and 115 % of control

Cc1ccc(S(=O)(=O)N/N=C(\CSc2ccc([N+](=O)[O-])cc2)c2ccccc2)cc1
inactive: endpoint: mean survival time, dose: 100.0 mg/kg/injection, schedule: Q04DX003 (ip), vehicle: saline with Tween-80 87 % of control | endpoint: mean survival time, dose: 200.0 mg/kg/injection, schedule: Q04DX003 (ip), vehicle: saline with Tween-80 92 % of control | endpoint: mean survival time, dose: 400.0 mg/kg/injection, schedule: Q04DX003 (ip), vehicle: saline with Tween-80 88 % of control
